From ChEMBL document CHEMBL3132827, “Quinazoline and tetrahydropyridothieno[2,3-d]pyrimidine derivatives as irreversible EGFR tyrosine kinase inhibitors: influence of the position 4 substituent” (Medchemcomm, 2013) come the findings set out here.

The test system of one assay is NCI-H1975. Briefly: cells. The format is functional, cell-based. To be noted: Homo sapiens.
Assay [1] concerns the target Epidermal growth factor receptor (Homo sapiens, UniProt P00533). As to the kind of experiment: Inhibition of recombinant wild type EGFR kinase(unknown origin) after 30 mins in presence of [gamma32P]ATP.
A short description of assay [2]: Cytotoxicity against human SKBR3 cells expressing wild type EGFR assessed as growth inhibition incubated for 1 hr prior to EGF challenge measured after 72 hrs by luciferase reporter gene assay. Format: functional, cell-based. To be noted: SK-BR-3. Background: A reporter such as luciferase makes a cellular process visible.
In assay [3] the target is Epidermal growth factor receptor (Homo sapiens, UniProt P00533, L858R/T790M). The format is cell-based, NCI-H1975.
Epidermal growth factor receptor (Homo sapiens, UniProt P00533, L858R/T790M), sequence (P00533 25-1210 T790M/L858R limits assumed): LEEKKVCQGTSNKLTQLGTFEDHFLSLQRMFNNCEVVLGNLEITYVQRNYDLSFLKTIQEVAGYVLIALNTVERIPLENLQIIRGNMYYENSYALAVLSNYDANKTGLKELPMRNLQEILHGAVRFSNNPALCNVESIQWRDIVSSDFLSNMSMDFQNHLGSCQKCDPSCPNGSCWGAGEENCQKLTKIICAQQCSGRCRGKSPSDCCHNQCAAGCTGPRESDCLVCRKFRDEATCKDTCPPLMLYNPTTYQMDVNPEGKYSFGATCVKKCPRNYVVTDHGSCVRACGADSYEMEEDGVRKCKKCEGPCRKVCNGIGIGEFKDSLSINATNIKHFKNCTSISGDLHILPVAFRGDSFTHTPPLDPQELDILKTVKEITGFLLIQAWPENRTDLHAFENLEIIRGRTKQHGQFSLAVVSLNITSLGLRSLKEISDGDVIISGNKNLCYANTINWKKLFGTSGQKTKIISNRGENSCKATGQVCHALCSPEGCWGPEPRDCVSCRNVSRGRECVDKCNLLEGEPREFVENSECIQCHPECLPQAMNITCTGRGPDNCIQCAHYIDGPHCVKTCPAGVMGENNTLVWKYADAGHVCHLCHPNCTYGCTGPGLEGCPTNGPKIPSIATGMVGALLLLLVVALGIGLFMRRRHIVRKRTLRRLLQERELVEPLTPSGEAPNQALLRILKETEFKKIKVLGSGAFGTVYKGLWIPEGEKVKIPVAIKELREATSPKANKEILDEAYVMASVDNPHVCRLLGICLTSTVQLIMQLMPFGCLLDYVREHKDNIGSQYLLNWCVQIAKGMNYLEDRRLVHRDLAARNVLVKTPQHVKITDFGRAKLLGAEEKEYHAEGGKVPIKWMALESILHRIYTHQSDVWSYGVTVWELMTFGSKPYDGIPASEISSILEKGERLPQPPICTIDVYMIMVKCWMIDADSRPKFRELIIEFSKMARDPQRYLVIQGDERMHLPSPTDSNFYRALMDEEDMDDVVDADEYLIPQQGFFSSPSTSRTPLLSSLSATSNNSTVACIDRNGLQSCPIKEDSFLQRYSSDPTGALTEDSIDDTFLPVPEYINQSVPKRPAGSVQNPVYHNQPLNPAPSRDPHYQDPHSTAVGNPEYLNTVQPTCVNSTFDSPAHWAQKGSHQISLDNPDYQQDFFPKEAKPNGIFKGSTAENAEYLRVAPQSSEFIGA

Epidermal growth factor receptor (Homo sapiens, UniProt P00533), sequence (P00533 whole entry): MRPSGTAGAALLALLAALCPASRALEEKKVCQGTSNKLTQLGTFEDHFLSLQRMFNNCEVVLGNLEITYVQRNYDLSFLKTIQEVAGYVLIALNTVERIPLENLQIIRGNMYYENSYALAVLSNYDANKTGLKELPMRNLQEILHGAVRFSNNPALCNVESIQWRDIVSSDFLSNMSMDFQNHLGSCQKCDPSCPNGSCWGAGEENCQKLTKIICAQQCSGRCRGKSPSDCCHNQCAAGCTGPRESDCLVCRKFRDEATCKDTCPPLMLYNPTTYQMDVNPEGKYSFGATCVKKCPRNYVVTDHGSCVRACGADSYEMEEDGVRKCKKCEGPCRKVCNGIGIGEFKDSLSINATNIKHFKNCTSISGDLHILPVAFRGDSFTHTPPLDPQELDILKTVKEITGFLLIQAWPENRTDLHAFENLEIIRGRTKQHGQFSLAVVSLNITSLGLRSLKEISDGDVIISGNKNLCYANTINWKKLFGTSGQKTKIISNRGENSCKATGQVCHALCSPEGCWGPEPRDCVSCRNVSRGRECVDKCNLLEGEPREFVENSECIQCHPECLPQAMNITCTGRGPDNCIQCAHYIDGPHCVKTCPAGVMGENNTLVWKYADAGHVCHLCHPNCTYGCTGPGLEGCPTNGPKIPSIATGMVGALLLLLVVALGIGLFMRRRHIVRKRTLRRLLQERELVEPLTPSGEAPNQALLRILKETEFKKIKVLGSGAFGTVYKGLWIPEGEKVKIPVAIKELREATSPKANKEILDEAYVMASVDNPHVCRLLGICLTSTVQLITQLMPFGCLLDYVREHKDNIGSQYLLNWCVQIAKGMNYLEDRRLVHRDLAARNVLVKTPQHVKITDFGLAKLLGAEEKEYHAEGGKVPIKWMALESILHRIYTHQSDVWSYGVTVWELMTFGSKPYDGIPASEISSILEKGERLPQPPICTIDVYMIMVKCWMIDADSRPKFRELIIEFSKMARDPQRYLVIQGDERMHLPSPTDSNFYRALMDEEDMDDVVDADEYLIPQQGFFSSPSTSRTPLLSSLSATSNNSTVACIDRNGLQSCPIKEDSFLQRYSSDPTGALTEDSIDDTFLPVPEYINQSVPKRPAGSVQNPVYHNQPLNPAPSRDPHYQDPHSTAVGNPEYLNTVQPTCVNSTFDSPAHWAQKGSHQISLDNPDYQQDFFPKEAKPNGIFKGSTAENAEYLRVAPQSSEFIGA

The IC50 is the concentration needed to halve the response being measured. For the molecule `C=CC(=O)Nc1ccc2ncnc(Nc3ccc(S(=O)(=O)NC(=N)N)cc3)c2c1`, the IC50 with NCI-H1975 is above 40000 nM; in assay [1], 53.3 nM; in assay [2] it was above 40000 nM.
In the case of `C=CC(=O)Nc1ccc2ncnc(Nc3cccc(C)c3F)c2c1`, the IC50 in assay [3] was 111000 nM; in the assay with NCI-H1975 it was 390 nM; in assay [1], 1.5 nM; in assay [2], 1860 nM.
Take `C=CC(=O)Nc1ccc2ncnc(Nc3ccc(S(=O)(=O)Nc4nccs4)cc3)c2c1`: the values for the IC50 (in the assay on NCI-H1975; in assay [1]; in assay [2]) were above 40000 nM, 43.7 nM and 4000 nM, respectively.
Turning to `C=CC(=O)Nc1ccc2ncnc(NC3CCCCC3)c2c1`, the IC50 in assay [3] was 2800 nM; in the assay with NCI-H1975, above 40000 nM; in assay [1], 3.4 nM; in assay [2] it was 400 nM.
With `C=CC(=O)Nc1ccc2ncnc(Nc3cccc(Br)c3)c2c1`, the half-maximal inhibitory concentration (IC50) with NCI-H1975 came to 440 nM; in assay [2] it was 200 nM.
As to `C=CC(=O)Nc1ccc2ncnc(Nc3ccc(Br)cc3C)c2c1`, the IC50 with NCI-H1975 is 1860 nM; in assay [1] it was 2.2 nM; in assay [2] it was 630 nM.
For the molecule `C=CC(=O)Nc1ccc2ncnc(Nc3ccc(Br)c(C)c3)c2c1`, the IC50 in the assay on NCI-H1975 came to 1820 nM; in assay [1], 2.3 nM; in assay [2], 1420 nM.
As for `C=CC(=O)N1CCc2c(sc3ncnc(Nc4ccc(Br)cc4F)c23)C1`, the concentration for half-maximal inhibition (IC50) with NCI-H1975 was above 40000 nM; in assay [1] it was 3.71 nM; in assay [2] it was 2300 nM.
Turning to `C=CC(=O)Nc1ccc2ncnc(Nc3ccc(S(N)(=O)=O)cc3)c2c1`, the IC50 is above 40000 nM in the assay on NCI-H1975, 76.5 nM in assay [1] and 2500 nM in assay [2].
Consider `C=CC(=O)N1CCc2c(sc3ncnc(Nc4ccc(Br)c(C)c4)c23)C1`, for which the 50% inhibitory concentration (IC50) with NCI-H1975 is above 40000 nM; in assay [1] it was 4.4 nM; in assay [2], above 40000 nM.
For the molecule `C=CC(=O)N1CCc2c(sc3ncnc(NC4CCCCC4)c23)C1`, the IC50 in assay [3] is above 5000 nM; in the assay on NCI-H1975, above 40000 nM; in assay [1] it was above 150 nM; in assay [2] it was above 40000 nM.
In the case of `C=CC(=O)Nc1ccc2ncnc(Nc3c(F)cccc3Br)c2c1`, the IC50 came to 260 nM in the assay on NCI-H1975, 2.2 nM in assay [1] and 230 nM in assay [2].
Consider `C=CC(=O)N1CCc2c(sc3ncnc(Nc4cccc(CC)c4)c23)C1`, for which the figures for the IC50 (with NCI-H1975; in assay [1]; in assay [2]) were 23800 nM, 8.73 nM and 3200 nM, respectively.
`C=CC(=O)Nc1ccc2ncnc(Nc3ccc(Br)cc3F)c2c1`: the IC50 in assay [3] came out at 36 nM; with NCI-H1975, 280 nM; in assay [1], 2.1 nM; in assay [2], 510 nM.
In the case of `C=CC(=O)Nc1ccc2ncnc(Nc3ccc(CC)cc3)c2c1`, the IC50 in the assay on NCI-H1975 is 15700 nM; in assay [1] it was 3.2 nM; in assay [2] it was 1140 nM.
Consider `C=CC(=O)Nc1ccc2ncnc(Nc3ccc(OC)cc3OC)c2c1`, for which the IC50 with NCI-H1975 turned out to be 13900 nM; in assay [2], 6890 nM.
Regarding `C=CC(=O)N1CCc2c(sc3ncnc(Nc4ccc(CC)cc4)c23)C1`, the IC50 in assay [3] is 130 nM; in the assay on NCI-H1975, 15200 nM; in assay [1], 7.38 nM; in assay [2], 6200 nM.
For `C=CC(=O)Nc1ccc2ncnc(Nc3cccc(CC)c3)c2c1` the same measures were 275 nM, 680 nM, 2.7 nM and 2820 nM.
`C=CC(=O)Nc1ccc2ncnc(Nc3ccccc3CC)c2c1`: the 50% inhibitory concentration (IC50) was determined as 2000 nM in assay [3], 16000 nM in the assay with NCI-H1975, 18.9 nM in assay [1] and 7700 nM in assay [2].
As for `C=CC(=O)Nc1ccc2ncnc(Nc3ccc(Br)c(OC)c3)c2c1`, the results for the IC50 (in the assay on NCI-H1975; in assay [1]; in assay [2]) were 400 nM, 2.5 nM and 360 nM, respectively.
For the molecule `C=CC(=O)Nc1ccc2ncnc(Nc3ccc(S(=O)(=O)Nc4ccccn4)cc3)c2c1`, the IC50 in assay [3] is 4390 nM; with NCI-H1975, above 40000 nM; in assay [1] it was 9.8 nM; in assay [2], 390 nM.
In the case of `C=CC(=O)N1CCc2c(sc3ncnc(Nc4cccc(C)c4F)c23)C1`, the IC50 was 280 nM in assay [3], 33800 nM in the assay with NCI-H1975, 3.95 nM in assay [1] and 1400 nM in assay [2].
